What was measured:
[1] = Stability in human serum at 37° C. monitored by 31P NMR; assay type: in vitro ADME; conditions: 12 h
Protocol: FIG. 5: Stability of HMBP phosphonate ProPAgen 4d in human serum at 37° C. for 12 hours as monitored by ^31P NMR. Prodrug 4d (5.0 mg) was dissolved in DMSO-d6 (0.10 mL) and D2O (0.15 mL). All ^31P NMR spectra were recorded at 37° C. Initially, a ^31P NMR scan of prodrug 4d (5.0 mg) in DMSO-d6 (0.10 mL) and D2O (0.15 mL) was recorded (shown as compound 4d alone in the figure). Following this, a previously defrosted human serum (0.30 mL) was added to the NMR tube and a spectrum immediately run. Spectra were recorded at 30 min after the addition and then at even time intervals over 12 hr.
FIG. 6: Stability of HMBP phosphonate ProPAgen 9a in human serum at 37° C. for 12 hours as monitored by ^31P NMR. Same as for compound 4d above. […] In fact, these are eight peaks as predicted and two extra peaks are seen when zoomed into these peaks to make the predicted eight phosphorous peaks of such compounds.
ProPAgen 4d with human serum at 37° C. for 12 h and monitored the sample by ^31P-NMR as reported previously^11.

human Vγ9/Vδ2+ T cells = experiment: Activation of human Vγ9/Vδ2+ T cells in PBMC (CD69 and CD25 upregulation, flow cytometry); assay type: cell-based; conditions: for Vγ9/Vδ2 T-cell activation potency (in words): human PBMC from healthy donors, 18-20 h, CD69/CD25, compared with HMBP phosphate ProPAgens or HMBPP; for EC50: human PBMC, 18 hr incubation, CD69 and CD25 upregulation
Protocol: FIG. 7. Activation of human Vγ9/Vδ2^+ T cells by HMBP phosphonate ProPAgens 4d and 9d. Human peripheral blood mononuclear cells (PBMC) were incubated with the indicated concentrations of ProPAgens 4d (left) and 9d (right) for 18 hr. TCR Vγ9/Vδ2^+ T cells were then assessed for the upregulation of cell surface markers, CD69 and CD25, as a readout to the activation of Vγ9/Vδ2^+ T cells. EC50 for both ProPAgens is ca. 8 pM (picomolar).
FIG. 8. FACS data showing the activation of human Vγ9/Vδ2^+ T cells by the HMBP phosphonate ProPAgen 4d in a dose-dependent manner. Human peripheral blood mononuclear cells (PBMC) were incubated with the indicated concentrations of ProPAgens 4d for 18 h (FIG. 8A) or 20 h (FIGS. 8B and 8C). For 20 h incubations, data was collected and analysed individually from two separate donors: Donor (1) results shown in FIG. 8B, Donor (2) results shown in FIG. 8C. TCR Vγ9/Vδ2^+ T cells were then assessed for the upregulation of cell surface markers, CD69 and CD25, as a readout to the activation of Vγ9/Vδ2^+ T cells.
FIG. 9. FACS data showing the activation of human Vγ9/Vδ2^+ T cells by the HMBP phosphonate ProPAgen 9d in a dose-dependent manner. Human peripheral blood mononuclear cells (PBMC) were incubated with the indicated concentrations of ProPAgens 9d for 18 h (FIG. 9A) or 20 h (FIGS. 9B and 9C). For 20 h incubations, data was collected and analysed individually from two separate donors: Donor (1) results shown in FIG. 9B, Donor (2) results shown in FIG. 9C. TCR Vγ9/Vδ2^+ T cells were then assessed for the upregulation of cell surface markers, CD69 and CD25, as a readout to the activation of Vγ9/Vδ2^+ T cells.
FIG. 10. […] Data was collected and analysed individually from two separate donors: Donor (1) results shown in FIG. 10A, Donor (2) results shown in FIG. 10B. TCR Vγ9/Vδ2^+ T cells were then assessed for the upregulation of cell surface markers, CD69 and CD25, as a readout to the activation of Vγ9/Vδ2^+ T cells.
Peripheral blood γδ T-cells lack appreciable levels of surface CD69 or CD25 under steady state conditions, but upon T-cell receptor (TCR) stimulation upregulate both T-cell activation markers within 72 hours. PAg responsive Vγ9/Vδ2 T-cells were then distinguished by TCR Vγ9 and Vδ2 expression and assessed for the upregulation CD69 and CD25. […]
Untreated and treated PBMCs were labelled with Zombie aqua viability dye (Biolegend) and subsequently were stained with a mixture of BV421-conjugated anti-CD3 (UCHT1, Biolegend), BV650-conjugated anti-CD8 (SK1; BD Bioscience), FITC-conjugated anti-CD25 (M-A25, Biolegend), PE-conjugated anti-CD69 (TP1.55.3; Beckman Coulter) and PE Cy5-conjugated anti-Vγ9 TCR (IMMU360, Beckman Coulter) and APC-conjugated anti-Vδ2 TCR (123R3, Miltenyi Biotech) antibodies. […] Data were analysed using FlowJo V10 software.

human CD8+ T cells = experiment: Activation of human CD8+ T cells in PBMC (CD69 and CD25 upregulation, flow cytometry); assay type: cell-based; conditions: for Concentration without CD8+ T cell activation relative to Vγ9/Vδ2 T-cell activation EC50: 1 μM versus calculated EC50; for Activation of CD8+ T cells: human PBMC, 20 h, up to 1 μM, CD69/CD25
Protocol: (§1) FIG. 11. FACS data showing a lack of activation of human CD8+ T cells by the HMBP phosphonate ProPAgen 4d. Human PBMCs were incubated with the indicated concentrations of ProPAgen 4d for 20 h. TCR CD8^+ T cells were then assessed for the upregulation of cell surface markers, CD69 and CD25, as a readout of the activation of CD8^+ T cells. Data was collected and analysed individually from two separate donors: Donor (1) results shown in FIG. 11A, Donor (2) results shown in FIG. 11B.
as §1, with “12.” for “11.”, “9d.” for “4d.”, “9d” for “4d”, “12A,” for “11A,”, “12B.” for “11B.”
Like peripheral blood γδ T-cells, peripheral blood CD8+ T-cells lack appreciable levels of surface CD69 or CD25 under steady state conditions, but upon T-cell receptor (TCR) stimulation upregulate both T-cell activation markers within 72 hours. PAg responsive CD8 T-cells were then distinguished by TCR CD8 expression and assessed for the upregulation CD69 and CD25.
Blood was obtained in the presence of a mixture of Heparin and Ethylenediaminetetraacetic acid (EDTA) as anticoagulants (2 U/ml heparin, 1.5 mM EDTA) from consented healthy donors (approved by the NRES Committee West Midlands ethical board; REC reference 14/WM/1254). Blood was then layered on a density gradient medium, lymphoprep (Stem Cell Technologies) and Peripheral blood mononuclear cells (PBMCs) were purified by gradient centrifugation. The cells were washed 2 times with Phosphate Buffered Saline (PBS), then resuspended in RPMI-1640 media supplemented with 2 mM L-glutamine, 25 mM HEPES, 1% sodium pyruvate, 50 μg/ml penicillin/streptomycin (Invitrogen) and 10% foetal calf serum.
Untreated and treated PBMCs were labelled with Zombie aqua viability dye (Biolegend) and subsequently were stained with a mixture of BV421-conjugated anti-CD3 (UCHT1, Biolegend), BV650-conjugated anti-CD8 (SK1; BD Bioscience), FITC-conjugated anti-CD25 (M-A25, Biolegend), PE-conjugated anti-CD69 (TP1.55.3; Beckman Coulter) and PE Cy5-conjugated anti-Vγ9 TCR (IMMU360, Beckman Coulter) and APC-conjugated anti-Vδ2 TCR (123R3, Miltenyi Biotech) antibodies. The percentages of CD69^+CD25^+ within CD8^+ T cell subset or Vγ9Vδ2 T-cell population were measured using flow cytometer. Data were analysed using FlowJo V10 software.

[2] = tested on: T24 urinary bladder carcinoma cell lines; experiment: Cytotoxicity assay: specific lysis of T24 bladder cancer cells by Vγ9/Vδ2 T-cells; assay type: cell-based, human; conditions: T24 cells incubated 4 hours with 100 pM ProPAgen 4d; effector target ratio 10:1, 18 hours; compared with 10 μM zoledronate and HMBPP
Protocol: FIG. 13. Cytotoxocity Assay showing potent lysis of bladder cancer cells following incubation with the HMBP phosphonate ProPAgen 4d. ProPAgen 4d mediates the specific lysis of T24 bladder cancer cells by Vγ9/Vδ2 T-cells.
Vγ9Vδ2 T cells were expanded from PBMCs in the presence of 5 μM zoledronate for 14 days and 100 U/ml IL-2 (Peprotech) was added into the media every 2-3 days, yielding ~85% Vγ9Vδ2 T cells. […] All cells were then labelled with eFluor780 viability dye and CFSE^+ eFluor780 viability dye^+ cells were measured using flow cytometry. Data were analysed using FlowJo V10.

Row | SMILES | Stability in human serum [1] | Vγ9/Vδ2 T-cell activation potency (in words) (human Vγ9/Vδ2+ T cells) | EC50 (human Vγ9/Vδ2+ T cells) | Concentration without CD8+ T cell activation relative to Vγ9/Vδ2 T-cell activation EC50 (human CD8+ T cells) | Activation of CD8+ T cells (human CD8+ T cells) | T24 bladder cancer lysis by Vγ9/Vδ2 T-cells [2]
1 | C/C(=C\CCP(=O)(N[C@@H](C)C(=O)OCc1ccccc1)Oc1ccccc1)CO (stereo partly shown) [ProPAgen 4d] | no degradation observed | potent Vγ9/Vδ2 T-cells activation | ~8 pM | approx. 100,000 times | did not exhibit activation | significant enhancement
2 | C/C(=C\CC(F)(F)P(=O)(N[C@@H](C)C(=O)OCc1ccccc1)Oc1ccccc1)CO (stereo partly shown) [ProPAgen 9d] |  | potent Vγ9/Vδ2 T-cells activation | ~8 pM | approx. 100,000 times | did not exhibit activation | 

From US12723055B2, “Phosphoantigen prodrug compounds” (priority 2018, dated 2026)
